Test results published in patent US11638712B2, “Bis(acetamidophenyl) guanidinophenylethylphosphonates for use in the prevention and/or treatment of PAR-related diseases” (Universiteit Antwerpen, priority 2016, dated 2023).
pIC50: −log10 of the molar value.

Key:
uPA = uPA (Homo sapiens, UniProt P00749); experiment: in vitro serine protease inhibition profile: uPA; type: biochemical
tPA = tPA (Homo sapiens, UniProt P00750); experiment: in vitro serine protease inhibition profile: tPA; type: biochemical
Sequence of tPA (P00750 36-562, species assumed): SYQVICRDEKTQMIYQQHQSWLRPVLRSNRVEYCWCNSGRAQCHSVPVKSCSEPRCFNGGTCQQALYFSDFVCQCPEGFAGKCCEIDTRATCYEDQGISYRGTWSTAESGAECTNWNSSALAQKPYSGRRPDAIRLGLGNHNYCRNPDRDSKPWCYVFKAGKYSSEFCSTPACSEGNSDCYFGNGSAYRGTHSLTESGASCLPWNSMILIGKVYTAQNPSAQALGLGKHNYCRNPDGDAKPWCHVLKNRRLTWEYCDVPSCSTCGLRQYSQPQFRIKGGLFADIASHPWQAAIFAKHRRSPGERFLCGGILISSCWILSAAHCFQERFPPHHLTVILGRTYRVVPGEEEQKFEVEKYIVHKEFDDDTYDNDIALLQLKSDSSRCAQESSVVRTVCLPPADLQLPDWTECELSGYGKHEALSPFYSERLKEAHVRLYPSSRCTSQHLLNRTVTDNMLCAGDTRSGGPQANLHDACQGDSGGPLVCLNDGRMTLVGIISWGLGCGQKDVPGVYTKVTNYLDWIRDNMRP

thrombin = molecular target: T1, thrombin (Homo sapiens, UniProt P00734); experiment: in vitro serine protease inhibition profile: thrombin; type: biochemical
T1 construct: panel of serine proteases: uPA, tPA, thrombin, plasmin, FXIIa

cathepsinG = molecular target: T2, cathepsinG (Homo sapiens, UniProt P08311); experiment: in vitro serine protease inhibition profile: cathepsinG; type: biochemical
T2 sequence (P08311 21-244): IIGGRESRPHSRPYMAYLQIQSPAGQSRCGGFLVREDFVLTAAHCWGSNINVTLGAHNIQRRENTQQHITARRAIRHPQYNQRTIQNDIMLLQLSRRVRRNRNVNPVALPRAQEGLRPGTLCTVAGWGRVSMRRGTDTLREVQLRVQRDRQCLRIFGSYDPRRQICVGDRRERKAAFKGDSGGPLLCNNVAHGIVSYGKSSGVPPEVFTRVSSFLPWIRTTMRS

KLK1 = KLK1 (Homo sapiens, UniProt P06870); experiment: in vitro serine protease inhibition profile: KLK1; type: biochemical
Sequence of KLK1 (P06870 25-262, species assumed): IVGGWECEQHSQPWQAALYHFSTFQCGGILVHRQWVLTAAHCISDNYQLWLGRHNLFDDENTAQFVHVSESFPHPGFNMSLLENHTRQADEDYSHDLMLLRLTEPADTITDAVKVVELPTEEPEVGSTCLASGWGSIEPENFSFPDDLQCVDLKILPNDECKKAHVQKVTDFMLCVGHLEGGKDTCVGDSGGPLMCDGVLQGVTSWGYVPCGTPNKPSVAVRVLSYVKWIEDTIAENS

KLK8 = molecular target: T3, KLK8 (Homo sapiens, UniProt O60259); experiment: in vitro serine protease inhibition profile: KLK8; type: biochemical
T3 sequence (O60259 33-260): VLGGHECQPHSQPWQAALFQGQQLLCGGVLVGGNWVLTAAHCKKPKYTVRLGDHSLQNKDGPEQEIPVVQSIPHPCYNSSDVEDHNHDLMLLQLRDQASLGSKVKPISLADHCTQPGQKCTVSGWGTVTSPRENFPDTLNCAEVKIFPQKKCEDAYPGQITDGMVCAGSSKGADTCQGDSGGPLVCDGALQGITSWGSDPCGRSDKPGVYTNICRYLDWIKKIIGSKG

post-colitis rats = experiment: post-colitis rat model for visceral pain, visceromotor response (VMR) to colorectal distension; settings: for effect on VMRs (visceral pain) / effective dose in visceral pain model: post-colitis rats; for effective dose in visceral pain model: i.p.
Experimental: Male Sprague-Dawley rats (200-225 g; Charles River, Italy) were used in all experiments. Rats were housed at a constant room temperature (22±2° C.) and humidity (60%). The animals had unlimited access to water and food and were kept on a 12 h:12 h day-night cycle. They were allowed to acclimatize for at least 1 week before the start of the experiments.
In this set-up, a mild colitis was induced in the post-colitis group on day 0, using a TNBS-enema. The control group received an intrarectal administration with 0.9% NaCl. The presence of colitis was verified by a colonoscopy on day 3. From day 10 onwards, a colonoscopy was performed every 4 days to follow-up the healing of the colonic mucosa. When the colonic mucosa was completely healed, further experiments were performed 3 days later. […] After the VMR measurement, the animals were sacrificed.
TNBS-colitis was induced at day 0 using a TNBS-enema (4 mg TNBS, 50% ethanol). […] Control animals received 0.25 ml 0.9% NaCl intrarectally. The animals were kept in a tail-up position during 1 min and were then allowed to recover in a Trendelenburg position.
Electromyographic (EMG) electrodes were implanted into the external abdominal muscle and 3 days later, the VMR experiment was performed in conscious rats. A lubricated balloon (length 5 cm) was introduced into the colorectum of the animal and connected to a barostat (Distender Series II Barostat, G&J Electronics, Canada). The EMG electrodes were attached to a data-acquisition system and a phasic distension protocol (10-20-30-40-60 mmHg, 20 s, 4 min interval) was sent through the barostat. […] The VMR was quantified using the area under the curve (AUC) of the EMG signal during the distension (20 s) corrected for the EMG signal before the distension (20 s).
22.0. The results of the VMR experiments analyzed using a Generalized Estimating Equations (GEE) test with Least Significant Difference (LSD) post-hoc test. A p-value<0.05 was considered as being statistically significant. The graphs were made with GraphPad Prism 6.0.
Visceral sensitivity was assessed using the visceromotor responses (VMRs) to a colorectal distension, shown in the graphs below as area under the curve (AUC; y-axis; μV.20 s-1) for each distension pressure (x-axis; mmHg). Serine proteases seem to play an important role in the pathogenesis of visceral pain.

[1] = tested on: TNF-α and IL-1α in tear fluid; experiment: rat dry eye model, pro-inflammatory cytokines in tear fluid; type: in vivo; settings: dry eye rats
Experimental: (§1) Female Wistar rats (200-300 g, Janvier, Roubaix, France) were kept under standard pathogen-free conditions. Husbandry conditions: room temperature 20-25° C., humidity 50-60% and a day-night cycle of 12 h light/12 h dark. Food and water were available ad libitum. All in vivo manipulations were approved by the Animal Ethical Committee of the University of Antwerp (2013-67) and are in accordance to the ARRIVE guidelines for the use of animals in ophthalmic and vision research.
(§2) To remove the gland, a small incision was made beneath the right ear. The lacrimal glands of the left eye were kept intact, leaving each animal with its own individual control and eliminating the need for extra control groups. Progression of dry eye was monitored for 24 days and tear volume measurements and fluorescein staining were performed once a week. Tears were collected twice a week.
Tear fluid was collected once a week with 10 μl capillaries (Blaubrand® Intramark, Wertheim, Germany) connected with a flexible tube to a syringe. […]
TNF-α and IL-1α concentrations in tear fluid were measured flow cytometrically (FACS calibur, BD Biosciences), using Cytometric Bead Array (CBA) according to the manufacturers protocol (Rat IL-1α and TNF-α CBA flex sets, BD Biosciences, Erembodegem Belgium.
Tear fluid was obtained twice a week. Tear volume and tissue damage was evaluated once a week. […]

[2] = rat dry eye model, aqueous tear production (phenol red thread); type: in vivo; settings: dry eye rats, 2 concentrations
Experimental: as §1, §2
A phenol red thread (Zone Quick®, Menicon Co. Ltd, Nagoya, Japan) was placed in the lateral cantus of the conjunctival fornix for 15 seconds. […] Tear fluid volumes were measured once a week.
Tear fluid was obtained twice a week. Tear volume and tissue damage was evaluated once a week. Animals were treated with Restasis® (2×/day), UAMC50, UAMC1162, UAMC1169/vehicle (2×/day) for 3 consecutive weeks. Compounds 1, 2 and 4 were formulated as follows: […]

[3] = 1 mg/kg i.p., single administration

SMILES	pIC50 (uPA)	pIC50 (tPA)	pIC50 (thrombin)	pIC50 (cathepsinG)	pIC50 (KLK1)	pIC50 (KLK8)	effect on VMRs (visceral pain) (post-colitis rats; [3])	effect on VMRs (visceral pain) (post-colitis rats; 2.5 mg/kg i.p.)	effective dose in visceral pain model (post-colitis rats)	side effect observed (post-colitis rats; rats, 5 mg/kg)	effect on visceral sensitivity (post-colitis rats; control rats, 1 mg/kg i.p.)	effect on VMRs (visceral pain) (post-colitis rats; 0.01 mg/kg i.p., single administration 30 min before VMR)	effect on VMRs (visceral pain) (post-colitis rats; 0.1 mg/kg i.p., single administration)	anti-inflammatory effect on IL-1α and TNF-α in tear fluid ([1]; 5 mM)	anti-inflammatory effect on IL-1α and TNF-α in tear fluid ([1]; two concentrations, compared with Restasis, FIGS. 6 and 7)	effect on tear volume [2]
COC(=O)NC(Cc1ccc(NC(=N)N)cc1)P(=O)(Oc1ccccc1)Oc1ccccc1 (stereo not drawn) [Compound 1]	8.40	< 5.60	< 5.60	6.48	< 5.60	7.55	no clear reduction of the VMRs was seen	visceral pain had completely disappeared	at least 2.5 mg/kg	sedation was observed	–	–	–	–	–	–
CC(=O)Nc1ccc(OP(=O)(Oc2ccc(NC(C)=O)cc2)C(Cc2ccc(NC(=N)N)cc2)NC(=O)OCc2ccccc2)cc1 (stereo not drawn) [Compound 4]	8.70	< 5.60	6.59	6.92	< 5.60	8.70	visceral pain had completely disappeared	–	0.1 mg/kg	–	no significant effect on visceral sensitivity	no significant effect	significantly lowered VMRs	significant anti-inflammatory effect	overall stronger anti-inflammatory effect and faster onset of action effect than Restasis©	no significant effects have been observed on tear volume
